Test system: KB
Experiment: Cytotoxicity against human KB cells after 72 hrs by neutral red based colorimetry assay
Assay type: functional, cell-based

| SMILES | IC50 [µM] |
| --- | --- |
| C[C@@H]1OC(=O)[C@]23CC[C@H]4[C@@H](CC=C5C[C@@H](N)CC[C@@]54C)[C@@H]2CC[C@H]13 | 21.2 |
| CN[C@H]1CC[C@@]2(C)C(=C[C@@H](O)[C@H]3[C@@H]4CC[C@@H]5[C@H](C)OC(=O)[C@@]54CC[C@@H]32)C1 | > 50 |
| CN[C@@H]1CC[C@@]2(C)C(=CC[C@H]3[C@@H]4CC[C@@H]5[C@H](C)OC(=O)[C@@]54CC[C@@H]32)C1 | 21 |
| CC(=O)N[C@@H]1CC[C@@]2(C)C(=CC[C@H]3[C@@H]4CC[C@@H]5[C@H](C)OC(=O)[C@@]54CC[C@@H]32)C1 | > 50 |
| C[C@@H]1OC(=O)[C@]23CC[C@H]4[C@@H](CC=C5C[C@H](N)CC[C@@]54C)[C@@H]2CC[C@H]13 [GITINGENSINE] | 21 |
| C[C@@H]1OC(=O)[C@]23CC[C@H]4[C@@H](C(=O)C=C5C=CCC[C@@]54C)[C@@H]2CC[C@H]13 [KIBALAURIFENONE] | 21 |
| CC(=O)N(C)[C@H]1C=C2C=C[C@H]3[C@@H]4CC[C@@H]5[C@H](C)OC(=O)[C@@]54CC[C@@H]3[C@@]2(C)CC1 [KIBALAURIFOLINE] | 21 |
| CN[C@H]1CC[C@@]2(C)C(=CC[C@H]3[C@@H]4CC[C@@H]5[C@H](C)OC(=O)[C@@]54CC[C@@H]32)C1 [PARAVALLARINE] | 12.8 |

— ChEMBL document CHEMBL1800015, “Cytotoxic steroidal alkaloids from Kibatalia laurifolia” (J Nat Prod, 2011)
